Assay results as given in PMC4549708, “Inhibition of neuraminidase by Ganoderma triterpenoids and implications for neuraminidase inhibitor design” (Scientific Reports, 2015).
pIC50: −log10 of the molar value.

How the values were obtained:
NA (H1N1, N295S) = assay type: biochemical, Influenza A virus A/California/04/2009(H1N1)(N295S); conditions: 200 µM
NA (H3N2, E119V) = assay type: biochemical, Influenza A virus A/Babol/36/2005(H3N2)(E119V); conditions: 200 µM
H1N1 (A/HA-58pdm-TR) = assay: microbe, parasite or virus in culture; assay type: cell-based, oseltamivir-resistant strain; conditions: Influenza A virus, H1N1, MDCK

Compound | Inhibition rate (%) NA(H1N1, N295S) (NA (H1N1, N295S)) [%] | Inhibition rate (%) NA(H3N2, E119V) (NA (H3N2, E119V)) [%] | pIC50 (H1N1 (A/HA-58pdm-TR))
C/C(=C\CC[C@@H](C)[C@H]1CC[C@@]2(C)C3=CC[C@H]4C(C)(C)[C@@H](O)CC[C@]4(C)C3=CC[C@]12C)CO [Compound 26, Ganoderol B] | 19.9 ± 1.1 | 19.1 ± 6.1 | –
CC(=O)O[C@@H]1C(=O)C2=C(C(=O)C[C@H]3C(C)(C)C(=O)CC[C@]23C)[C@]2(C)C(=O)C[C@H]([C@H](C)CC(=O)CC(C)C(=O)O)[C@@]12C (stereo partly shown) [Compound 24, Ganoderic acid F] | 17.6 ± 2.0 | 19.9 ± 2.6 | –
C[C@H](CCC=C(CO)CO)[C@H]1CC[C@@]2(C)C3=CC[C@H]4C(C)(C)C(=O)CC[C@]4(C)C3=CC[C@]12C [Compound 27, Ganoderiol F] | 9.5 ± 4.5 | 16.8 ± 1.2 | –
C/C(=C\CC[C@@H](C)[C@H]1CC[C@@]2(C)C3=C(CC[C@]12C)[C@@]1(C)CCC(=O)C(C)(C)[C@@H]1CC3=O)C(=O)O [Compound 20, Ganoderic acid DM] | 19.0 ± 2.4 | 28.8 ± 0.5 | –
CC(CC(=O)C[C@@H](C)[C@H]1CC(=O)[C@@]2(C)C3=C(C(=O)C[C@]12C)[C@@]1(C)CC[C@H](O)C(C)(C)[C@@H]1C[C@@H]3O)C(=O)O (stereo partly shown) [Compound 14, Ganoderic acid B] | 12.8 ± 1.4 | 38.7 ± 1.6 | –
C/C(=C\CC[C@@H](C)[C@H]1C[C@H](O)[C@@]2(C)C3=CC[C@H]4C(C)(C)C(=O)CC[C@]4(C)C3=CC[C@]12C)C(=O)O [Compound 2, Ganoderic acid TR] | – | 59.2 ± 1.9 | 3.61
C[C@H](CC(=O)C[C@@H](C)[C@H]1C[C@H](O)[C@@]2(C)C3=C(C(=O)C[C@]12C)[C@@]1(C)CC[C@H](O)C(C)(C)[C@@H]1C[C@@H]3O)C(=O)O [Compound 9, Ganoderic acid C2] | 13.7 ± 2.4 | 45.4 ± 1.1 | –
C/C(=C\CC[C@@H](C)[C@H]1CC[C@@]2(C)C3=CC[C@H]4C(C)(C)[C@@H](O)CC[C@]4(C)C3=CC[C@]12C)C(=O)O [Compound 6, Ganoderic acid Y] | 16.9 ± 2.8 | 23.2 ± 3.4 | –
CC(=O)O[C@@H]1C(=O)C2=C([C@@H](O)C[C@H]3C(C)(C)[C@@H](O)CC[C@]23C)[C@]2(C)C(=O)C[C@H]([C@H](C)CC(=O)CC(C)C(=O)O)[C@@]12C (stereo partly shown) [Compound 11, Ganoderic acid K] | 14.2 ± 2.9 | 33.5 ± 2.4 | –
CC(=O)O[C@@H]1C(=O)C2=C(C(=O)C[C@H]3C(C)(C)[C@@H](O)CC[C@]23C)[C@]2(C)C(=O)C[C@H]([C@H](C)CC(=O)CC(C)C(=O)O)[C@@]12C (stereo partly shown) [Compound 13, Ganoderic acid H] | 16.9 ± 2.4 | 27.9 ± 1.5 | –
C/C(C=O)=C\CC[C@@H](C)[C@H]1CC[C@@]2(C)C3=C(CC[C@]12C)[C@@]1(C)CCC(=O)C(C)(C)[C@@H]1CC3=O [Compound 31, Lucialdehyde B] | 11.2 ± 1.3 | 43.3 ± 1.0 | –
C[C@H](CC(=O)C[C@@H](C)[C@H]1CC(=O)[C@@]2(C)C3=C(C(=O)C[C@]12C)[C@@]1(C)CCC(=O)C(C)(C)[C@@H]1C[C@@H]3O)C(=O)O [Compound 19, Ganoderic acid C1] | 14.7 ± 3.9 | 32.0 ± 3.4 | –
C[C@H](CC(=O)C[C@@H](C)[C@H]1C[C@H](O)[C@@]2(C)C3=C(C(=O)C[C@]12C)[C@@]1(C)CCC(=O)C(C)(C)[C@@H]1C[C@@H]3O)C(=O)O [Compound 7, Ganoderic acid A] | 15.3 ± 1.8 | 32.1 ± 2.7 | –
C/C(=C\[C@@H](O)C[C@@H](C)[C@H]1CC(=O)[C@@]2(C)C3=C(C(=O)C[C@]12C)[C@@]1(C)CC[C@H](O)C(C)(C)[C@@H]1CC3=O)C(=O)O [Compound 22, Ganoderic acid Zeta] | 25.5 ± 4.9 | 18.7 ± 4.5 | –
C/C(=C/CC[C@@H](C)[C@H]1CC[C@@]2(C)C3=CC[C@H]4C(C)(C)C(=O)CC[C@]4(C)C3=CC[C@]12C)C(=O)O [Compound 5, Ganoderic acid S] | 34.1 ± 2.2 | 44.9 ± 3.2 | –
C/C(=C\C(=O)CC(C)C(=O)O)[C@H]1CC(=O)[C@@]2(C)C3=C(C(=O)C[C@]12C)[C@@]1(C)CC[C@H](O)C(C)(C)[C@@H]1CC3=O (stereo partly shown) [Compound 12, Ganoderenic acid H] | 12.8 ± 5.1 | 38.6 ± 2.3 | –

Compound | Inhibition rate (%) NA(H1N1, N295S) (NA (H1N1, N295S)) [%] | Inhibition rate (%) NA(H3N2, E119V) (NA (H3N2, E119V)) [%] | pIC50 (H1N1 (A/HA-58pdm-TR))
C/C(=C\C(=O)CC(C)C(=O)O)[C@H]1C[C@H](O)[C@@]2(C)C3=C(C(=O)C[C@]12C)[C@@]1(C)CCC(=O)C(C)(C)[C@@H]1C[C@@H]3O (stereo partly shown) [Compound 8, Ganoderenic acid A] | 12.4 ± 1.8 | 29.1 ± 2.3 | –
C/C(=C\[C@@H](O)C[C@@H](C)[C@H]1CC(=O)[C@@]2(C)C3=C(C(=O)C[C@]12C)[C@@]1(C)CCC(=O)C(C)(C)[C@@H]1C[C@@H]3O)C(=O)O [Compound 23, Ganoderic acid LM2] | 15.4 ± 0.6 | 12.9 ± 1.0 | –
C/C(C=O)=C\CC[C@@H](C)[C@H]1CC[C@@]2(C)C3=CC[C@H]4C(C)(C)[C@@H](O)CC[C@]4(C)C3=CC[C@]12C [Compound 30, Lucialdehyde A] | 5.8 ± 2.4 | 25.9 ± 8.1 | –
C/C(=C\CC[C@@H](C)[C@H]1CC[C@@]2(C)C3=CC[C@H]4C(C)(C)C(=O)CC[C@]4(C)C3=CC[C@]12C)CO [Compound 25, Ganoderol A] | 22.6 ± 1.8 | 18.2 ± 2.7 | –
CC(=O)O[C@H]1C[C@H]([C@H](C)CC/C=C(\C)C(=O)O)[C@@]2(C)CC=C3C(=CC[C@H]4C(C)(C)[C@@H](O)CC[C@]34C)[C@]12C [Compound 3, Ganoderic acid T-N] | 27.5 ± 1.4 | 43.6 ± 1.2 | –
CC(CC(=O)C[C@@H](C)[C@H]1CC(=O)[C@@]2(C)C3=C(C(=O)[C@@H](O)[C@]12C)[C@@]1(C)CC[C@H](O)C(C)(C)[C@@H]1CC3=O)C(=O)O (stereo partly shown) [Compound 18, Ganoderic acid C6] | 17.6 ± 3.5 | 20.7 ± 0.5 | –
CC(CC(=O)C[C@@H](C)[C@H]1CC(=O)[C@@]2(C)C3=C(C(=O)C[C@]12C)[C@@]1(C)CC[C@H](O)C(C)(C)[C@@H]1CC3=O)C(=O)O (stereo partly shown) [Compound 10, Ganoderic acid AM1] | 9.3 ± 1.6 | 31.3 ± 3.2 | –
C/C(=C\C(=O)CC(C)C(=O)O)[C@H]1CC(=O)[C@@]2(C)C3=C(C(=O)C[C@]12C)[C@@]1(C)CCC(=O)C(C)(C)[C@@H]1CC3=O (stereo partly shown) [Compound 15, Ganoderenic acid F] | 24.4 ± 4.4 | 24.2 ± 3.9 | –
CC(CC(=O)C[C@@H](C)[C@H]1C[C@H](O)[C@@]2(C)C3=C(C(=O)C[C@]12C)[C@@]1(C)CCC(=O)C(C)(C)[C@@H]1CC3)C(=O)O (stereo partly shown) [Compound 21, Ganolucidic acid A] | 21.0 ± 4.2 | 22.9 ± 3.8 | –
C[C@H](CC[C@H](O)C(C)(C)O)[C@H]1CC[C@@]2(C)C3=CC[C@H]4C(C)(C)C(=O)CC[C@]4(C)C3=CC[C@]12C [Compound 28, Ganodermanondiol] | 19.0 ± 4.2 | 34.2 ± 0.9 | –
Ganoderenic acid D [Compound 17] | 13.8 ± 3.1 | 32.2 ± 3.4 | –
C/C(=C\C(=O)CC(C)C(=O)O)C1CC(O)C2(C)C3=C(C(=O)CC12C)C1(C)CCC(O)C(C)(C)C1CC3O (stereo not shown) [Compound 16, Ganoderenic acid C] | 13.2 ± 2.2 | 37.5 ± 2.4 | –
CC(=O)O[C@H]1C[C@H]([C@H](C)CC/C=C(\C)C(=O)O)[C@@]2(C)CC=C3C(=CC[C@H]4C(C)(C)C(=O)CC[C@]34C)[C@]12C [Compound 1, Ganoderic acid T-Q] | – | 55.4 ± 4.1 | –
C[C@H](CC[C@H](O)[C@](C)(O)CO)[C@H]1CC[C@@]2(C)C3=CC[C@H]4C(C)(C)C(=O)CC[C@]4(C)C3=CC[C@]12C [Compound 29, Ganodermanontriol] | 7.9 ± 3.2 | 12.2 ± 3.4 | –
C/C(=C/CC[C@@H](C)[C@H]1CC[C@@]2(C)C3=CC[C@H]4C(C)(C)C(=O)CC[C@]4(C)C3=CC[C@]12C)C(=O)O [Compound 4, Ganoderic acid Sz] | 29.3 ± 5.1 | 22.5 ± 0.3 | –
